Measurements taken from US9284595B2 (priority 2012, dated 2016).

What was measured:
BoNT/A-LC [1] = biological target: T1, BoNT/A-LC (Clostridium botulinum, UniProt P0DPI0); format: biochemical
BoNT/A-LC [2] = biological target: T1, BoNT/A-LC; format: biochemical; remark: listed apart in the source
[3] = biological target: heat inactivated BoNT/A-LC (Clostridium botulinum, UniProt P0DPI0)
BoNT/A Toxoid = BoNT/A Toxoid (Clostridium botulinum, UniProt P0DPI0)
BoNT/A Holotoxin = BoNT/A Holotoxin (Clostridium botulinum, UniProt P0DPI0); format: biochemical
BoNT/A Holotoxin, sequence (P0DPI0 2-448 limits assumed): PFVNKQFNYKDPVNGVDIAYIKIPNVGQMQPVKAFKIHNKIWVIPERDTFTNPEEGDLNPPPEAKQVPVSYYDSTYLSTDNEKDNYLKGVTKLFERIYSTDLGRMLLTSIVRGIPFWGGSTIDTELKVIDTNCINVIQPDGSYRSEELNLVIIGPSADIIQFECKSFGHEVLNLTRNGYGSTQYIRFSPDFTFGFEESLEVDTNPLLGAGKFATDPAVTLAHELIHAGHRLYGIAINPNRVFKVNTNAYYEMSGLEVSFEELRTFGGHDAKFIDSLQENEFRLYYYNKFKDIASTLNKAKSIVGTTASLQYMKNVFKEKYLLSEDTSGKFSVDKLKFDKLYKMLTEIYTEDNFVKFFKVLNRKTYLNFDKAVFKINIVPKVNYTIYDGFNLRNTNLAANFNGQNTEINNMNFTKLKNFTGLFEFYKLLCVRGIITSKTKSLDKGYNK

T1 sequence (P0DPI0 2-448 limits assumed): as above
BoNT/A Toxoid, sequence (P0DPI0 2-448 limits assumed): as above
heat inactivated BoNT/A-LC, sequence (P0DPI0 2-448 limits assumed): as above

O[C@H](CS)[C@H](O)CS (racemic) [DTT, Dithiothreitol]
effect on BoNT/A-LC activity (BoNT/A-LC [1]): reduced BoNT/A-LC activity

(KDabcyl)TRIDEANQRATKML(K5Fam) [SEQ. ID NO. 6]
detection of BoNT/A-LC activity (BoNT/A-LC [2]): incapable of detecting BoNT/A-LC activity

MDENLEQVSGIIGNLRHMALDMGNEIDTQNRQIDRIMEKADSN(KDabcyl)TRIDEANQRATKML(K5Fam) [SEQ. ID NO. 1]
detection of BoNT/A-LC activity (BoNT/A-LC [2]): able to detect BoNT/A-LC | detection of BoNT/A-LC activity in the presence of common PCR inhibitors (BoNT/A-LC [2]): can detect BoNT/A-LC activity in the presence of common PCR inhibitors | detection of biologically active BoNT/A-LC (BoNT/A-LC [2]): able to detect biologically active BoNT/A-LC | fluorescence response to BoNT/A-LC (BoNT/A-LC [2]): able to detect biologically active BoNT/A-LC | increase in fluorescence overtime compared to SNAPtide (BoNT/A-LC [2]): greater increase in fluorescence overtime | limit of detection of BoNT/A-LC (BoNT/A-LC [2]): at least 0.04 ng | detection of heat inactivated BoNT/A-LC [3]: not heat inactivated BoNT/A-LC, even when present at high concentrations | detection of BoNT/A Toxoid (BoNT/A Toxoid): not BoNT/A Toxoid, even when present at high concentrations

O=C(O)CCP(CCC(=O)O)CCC(=O)O [TCEP, tris(2-carboxyethyl)phosphine, reference compound]
performance of reducing agent in BoNT/A-LC assay (BoNT/A-LC [2]): performed better than samples with DTT (and zinc), and even better than samples containing no reducing agent | performance of TCEP concentration in BoNT/A Holotoxin assay (BoNT/A Holotoxin): samples with 1.0 mM TCEP performed better than samples with 2.0 mM TCEP
